Series [1] is described as follows: Equilibration of solid form in solvent for 4 weeks at 40° C., resulting form by XRPD. Format: physicochemical. As for the experimental part: Equilibration slurry and evaporation experiments were carried out by adding an excess of Compound I free base or HCl salt to 2 mL of solvent. […] Upon reaching equilibrium, the saturated supernatant solution was removed and allowed to evaporate slowly in an open vial under nitrogen at 25° C. or 50° C., respectively. The slurry resulting from the equilibration was filtered and air-dried. X-ray powder diffraction (XRPD) measurements were performed in accordance with United States Pharmacopeia (USP) monograph <941> entitled “X-ray Diffraction” (See, e.g., The United States Pharmacopeia, The National Formulary, 2003, The Unites States Pharmacopeial Convention, Inc., Rockville, Md., 2002, which is herein incorporated by reference in its entirety). A Thermo ARL X'TRA X-ray powder diffractometer (Thermo Electron Corp., Waltham, Mass.), equipped with Nickel-filtered Cu Kα radiation at 1.54 Å, was used for XRPD measurements from about 1.5 °2θ to about 40 °2θ, with a step size of about 0.020°, a count time of about 0.50 seconds per step, and a step scan rate of about 2.40°/min. The instrument was equipped with a fine focus X-ray tube. The voltage and amperage were set at 45 kV and 40 mA, respectively. The divergence slits were set at 0.5 mm and 0.2 mm. Diffracted radiation was measured using a Peltier-cooled Si (Li) solid-state detector. Representative XRPD patterns were presented displaying intensity (counts per second) versus position (°2θ). A sintered alumina standard was used to check peak positions. Peak positions may vary from sample to sample by approximately ±0.1 °2θ. Variation in peak position may depend upon multiple factors, including particle size, sample preparation, data collection temperature and parameters. Variation in peak intensity may occur, e.g., as a result of preferred orientation and/or variation in crystal habit.

Series [2] can be described thus: Storage stability at stress conditions (about 40° C. and about 75% RH). Format: physicochemical. Particulars: about 40° C. and about 75% RH for about four weeks. As for the experimental part: In certain embodiments, Form A of the HCl salt of Compound I is substantially pure. In certain embodiments, Form A of the HCl salt of Compound I is stable upon slurry in particular solvents at particular temperatures. For example, in certain embodiments, Form A of the HCl salt is stable in, e.g., acetone, acetonitrile, ethyl acetate, heptane, MTBE, toluene, THF and mixtures of two or more thereof at about 40° C. for about four weeks. In certain embodiments, Form A of the HCl salt is stable upon storage at particular stress conditions. For example, in certain embodiments, Form A of the HCl salt of Compound I is stable upon storage at about 40° C. and about 75% RH for about four weeks.

Counter-ions that a name gives are not always drawn.

On to `OC1CCC(Nc2ncc3nc(Nc4c(F)cc(F)cc4F)n(C4CCOC4)c3n2)CC1` (stereo not shown) [Form A of the HCl salt of Compound I, 4-[9-(tetrahydro-furan-3-yl)-8-(2,4,6-trifluoro-phenylamino)-9H-purin-2-ylamino]-cyclohexan-1-ol], for which the “Resulting Form by XRPD” value in series [1] (Equilibrate HCl salt Form A in 2-Propanol for 4 weeks at 40° C.), in series [1] (Equilibrate HCl salt Form A in Acetonitrile for 4 weeks at 40° C.), in series [1] (Equilibrate HCl salt Form A in Ethyl acetate for 4 weeks at 40° C.), in series [1] (Equilibrate HCl salt Form A in Heptane for 4 weeks at 40° C.), in series [1] (Equilibrate HCl salt Form A in MTBE for 4 weeks at 40° C.) and in series [1] (Equilibrate HCl salt Form A in THF for 4 weeks at 40° C.) was “Compound I HCl Salt Form A” throughout. In addition, the “Resulting Form by XRPD” value in series [1] (Equilibrate HCl salt Form A in Toluene for 4 weeks at 40° C.) and in series [1] (Equilibrate HCl salt in Acetone for 4 weeks at 40° C.) was “Compound I HCl Salt Form A” in each case. Further, the “stability upon slurry in solvents” value in series [1] (acetone, acetonitrile, ethyl acetate, heptane, MTBE, toluene, THF and mixtures, about 40° C. for about four weeks) is on record as “stable”. The “stability upon storage at stress conditions” value in series [2] was “stable”.

The record behind these values is US8158635B2, “Solid forms comprising 4-[9-(tetrahydro-furan-3-yl)-8-(2,4,6-trifluoro-phenylamino)-9H-purin-2-ylamino]-cyclohexan-1-ol, compositions thereof, and uses therewith” (Signal Pharmaceuticals, LLC, priority 2006, dated 2012).
